Test results from ChEMBL document CHEMBL4265943, “Design and synthesis of potent dual inhibitors of JAK2 and HDAC based on fusing the pharmacophores of XL019 and vorinostat” (Eur J Med Chem, 2018).
The source made the active and inactive calls. No cut-off for these calls is given here.

Key:
[1] = target: T1, Tyrosine-protein kinase JAK2 (Homo sapiens, UniProt O60674); experiment: Inhibition of JAK2 in human HeLa cells assessed as increase in JAK2 phosphorylation at 15 to 20 uM after 1 hr by immunoblot analysis; format: cell-based
T1 sequence (O60674 whole entry): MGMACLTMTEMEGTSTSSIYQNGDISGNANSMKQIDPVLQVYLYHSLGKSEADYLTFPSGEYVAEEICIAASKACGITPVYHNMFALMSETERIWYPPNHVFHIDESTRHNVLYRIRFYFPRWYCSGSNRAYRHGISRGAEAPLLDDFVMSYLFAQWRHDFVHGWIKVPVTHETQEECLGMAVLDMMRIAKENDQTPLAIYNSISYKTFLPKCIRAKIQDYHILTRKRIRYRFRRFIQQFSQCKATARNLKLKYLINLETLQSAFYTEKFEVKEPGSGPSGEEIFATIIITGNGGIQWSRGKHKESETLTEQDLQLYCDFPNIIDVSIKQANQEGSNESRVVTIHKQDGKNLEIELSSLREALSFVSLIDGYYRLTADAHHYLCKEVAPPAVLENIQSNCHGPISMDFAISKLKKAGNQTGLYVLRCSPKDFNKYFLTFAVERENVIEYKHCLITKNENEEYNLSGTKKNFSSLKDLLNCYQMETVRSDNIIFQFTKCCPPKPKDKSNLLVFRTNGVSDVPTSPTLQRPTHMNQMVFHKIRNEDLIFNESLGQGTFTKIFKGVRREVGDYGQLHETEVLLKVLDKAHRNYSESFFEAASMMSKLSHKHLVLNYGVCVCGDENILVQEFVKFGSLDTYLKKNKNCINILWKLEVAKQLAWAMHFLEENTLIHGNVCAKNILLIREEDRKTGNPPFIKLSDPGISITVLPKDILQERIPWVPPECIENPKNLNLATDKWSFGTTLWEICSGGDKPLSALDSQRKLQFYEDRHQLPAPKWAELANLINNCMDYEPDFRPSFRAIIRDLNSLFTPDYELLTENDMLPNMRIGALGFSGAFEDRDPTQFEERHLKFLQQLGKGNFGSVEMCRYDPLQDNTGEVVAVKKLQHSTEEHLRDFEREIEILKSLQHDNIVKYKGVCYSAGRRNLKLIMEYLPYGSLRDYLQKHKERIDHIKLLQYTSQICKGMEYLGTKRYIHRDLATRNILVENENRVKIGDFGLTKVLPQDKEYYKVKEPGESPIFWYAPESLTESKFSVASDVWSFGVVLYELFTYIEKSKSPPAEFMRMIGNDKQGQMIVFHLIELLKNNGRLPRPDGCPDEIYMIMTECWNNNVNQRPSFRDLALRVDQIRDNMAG

[2] = target: Histone deacetylase 1 (Homo sapiens, UniProt Q13547); experiment: Inhibition of HDAC1 (unknown origin) using Arg-His-Lys-Lys(Ac) as substrate preincubated with enzyme followed by substrate addition for 2 hrs and measured for 1.5 hrs at 15 mins time interval by fluorescence assay
Chain of Histone deacetylase 1 (Q13547 whole entry): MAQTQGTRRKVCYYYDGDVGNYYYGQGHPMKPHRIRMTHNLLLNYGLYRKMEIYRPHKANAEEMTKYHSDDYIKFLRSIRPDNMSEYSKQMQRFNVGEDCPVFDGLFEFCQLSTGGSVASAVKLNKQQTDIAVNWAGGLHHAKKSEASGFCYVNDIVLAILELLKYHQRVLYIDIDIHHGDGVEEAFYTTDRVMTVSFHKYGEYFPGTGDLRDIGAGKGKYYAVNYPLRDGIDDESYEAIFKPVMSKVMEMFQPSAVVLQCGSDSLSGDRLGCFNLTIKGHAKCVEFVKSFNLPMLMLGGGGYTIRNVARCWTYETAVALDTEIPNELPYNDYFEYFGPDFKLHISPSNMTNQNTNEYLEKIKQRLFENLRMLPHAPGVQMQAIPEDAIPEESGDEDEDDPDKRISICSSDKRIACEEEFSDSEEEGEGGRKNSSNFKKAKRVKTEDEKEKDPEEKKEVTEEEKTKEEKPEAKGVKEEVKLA

[3] = Antiproliferative activity against human AC10 cells after 72 hrs by MTT assay; format: cell-based
[4] = tested on: KMS-12-BM; experiment: Antiproliferative activity against human KMS-12-BM cells after 72 hrs by MTT assay; format: functional, cell-based
[5] = Selectivity index, ratio of CC50 for mouse TAMH cells to IC50 for human XG6 cells; format: toxicity; conditions: TAMH cells (CC50) and XG6 cells (IC50)
[6] = target: T2, Protein deacetylase HDAC6 (Homo sapiens) (UniProt Q9UBN7); experiment: Inhibition of HDAC6 in human HEL 92.1.7 cells assessed as increase in acetylated tubulin level at 1 uM after 1 hr by immunoblot analysis; format: cell-based
T2 sequence (whole entry): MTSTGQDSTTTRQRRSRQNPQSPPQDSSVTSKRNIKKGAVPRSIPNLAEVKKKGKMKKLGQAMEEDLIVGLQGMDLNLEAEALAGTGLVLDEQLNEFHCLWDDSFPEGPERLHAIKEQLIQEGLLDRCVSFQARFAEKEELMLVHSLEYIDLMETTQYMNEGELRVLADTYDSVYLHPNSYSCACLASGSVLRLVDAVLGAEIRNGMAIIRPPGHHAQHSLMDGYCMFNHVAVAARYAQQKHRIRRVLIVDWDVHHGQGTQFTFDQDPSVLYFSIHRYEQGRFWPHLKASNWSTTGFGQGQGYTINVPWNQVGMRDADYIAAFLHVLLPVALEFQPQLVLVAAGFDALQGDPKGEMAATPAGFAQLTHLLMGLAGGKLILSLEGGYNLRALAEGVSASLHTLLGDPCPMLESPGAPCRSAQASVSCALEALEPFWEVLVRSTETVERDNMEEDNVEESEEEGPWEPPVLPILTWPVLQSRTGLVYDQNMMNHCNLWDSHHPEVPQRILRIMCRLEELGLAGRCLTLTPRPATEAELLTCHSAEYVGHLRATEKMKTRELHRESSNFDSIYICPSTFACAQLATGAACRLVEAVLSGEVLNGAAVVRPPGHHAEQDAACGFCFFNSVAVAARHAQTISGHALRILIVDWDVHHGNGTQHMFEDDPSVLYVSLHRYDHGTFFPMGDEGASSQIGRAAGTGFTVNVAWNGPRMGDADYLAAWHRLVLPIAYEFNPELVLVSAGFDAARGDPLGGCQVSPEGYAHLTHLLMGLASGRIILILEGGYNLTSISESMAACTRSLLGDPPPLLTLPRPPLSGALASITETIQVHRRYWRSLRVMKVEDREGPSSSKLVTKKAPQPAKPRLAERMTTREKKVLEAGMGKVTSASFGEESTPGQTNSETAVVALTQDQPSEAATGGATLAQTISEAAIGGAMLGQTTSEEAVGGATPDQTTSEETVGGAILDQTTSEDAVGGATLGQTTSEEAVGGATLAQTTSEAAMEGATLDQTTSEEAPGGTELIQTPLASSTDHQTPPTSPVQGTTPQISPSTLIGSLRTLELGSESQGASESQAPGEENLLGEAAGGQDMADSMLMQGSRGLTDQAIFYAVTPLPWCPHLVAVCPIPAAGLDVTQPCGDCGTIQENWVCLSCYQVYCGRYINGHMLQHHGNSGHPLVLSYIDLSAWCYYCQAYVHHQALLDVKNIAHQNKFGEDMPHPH

[7] = Antiproliferative activity against mouse TAMH cells after 72 hrs by MTT assay; format: cell-based
[8] = target: T1, Tyrosine-protein kinase JAK2; experiment: Inhibition of JAK2 in human HeLa cells assessed as reduction in STAT5 phosphorylation at 15 to 20 uM after 1 hr by immunoblot analysis; format: cell-based
[9] = organism: Homo sapiens; experiment: Selectivity ratio of IC50 for HDAC1 (unknown origin) to IC50 for HDAC6 (unknown origin)
[10] = target: T1, Tyrosine-protein kinase JAK2; experiment: Inhibition of human JAK2 using poly(Glu:Tyr)(4:1) as substrate preincubated for 20 mins followed by [gamma33P]ATP addition measured after 120 mins by ion exchange filter paper method
[11] = tested on: HCT-116; experiment: Antiproliferative activity against human HCT116 cells after 72 hrs by MTT assay; format: functional, cell-based; conditions: HCT-116, 72 h
[12] = tested on: PC-3; experiment: Antiproliferative activity against human PC3 cells after 72 hrs by MTT assay; format: functional, cell-based; conditions: PC-3, 72 h
[13] = Antiproliferative activity against human XG6 cells after 72 hrs by MTT assay; format: functional, cell-based; conditions: XG6, 72 h
[14] = Selectivity index, ratio of CC50 for human AC10 cells to IC50 for human XG6 cells; format: toxicity; conditions: AC10 cells (CC50) and XG6 cells (IC50)
[15] = Selectivity index, ratio of CC50 for human AC10 cells to IC50 for human KMS-12-BM cells; format: toxicity; conditions: AC10 cells (CC50) and KMS-12-BM cells (IC50)
[16] = target: Histone deacetylase 1/2/3 (Homo sapiens) (UniProt Q13547+O15379+Q92769); experiment: Inhibition of HDAC1/HDAC2/HDAC3 in human HEL 92.1.7 cells assessed as increase in acetylated […] level at 1 uM after 1 hr by immunoblot analysis; format: cell-based
[17] = Selectivity index, ratio of CC50 for mouse TAMH cells to IC50 for human KMS-12-BM cells; format: toxicity; conditions: TAMH cells (CC50) and KMS-12-BM cells (IC50)
[18] = tested on: MDA-MB-231; experiment: Antiproliferative activity against human MDA-MB-231 cells after 72 hrs by MTT assay; format: functional, cell-based; conditions: MDA-MB-231, 72 h
[19] = target: T3, Protein deacetylase HDAC6 (Homo sapiens, UniProt Q9UBN7); experiment: Inhibition of HDAC6 (unknown origin) using Arg-His-Lys-Lys(Ac) as substrate preincubated with enzyme followed by substrate addition for 2 hrs and measured for 1.5 hrs at 15 mins time interval by fluorescence assay
T3 sequence (Q9UBN7 whole entry): T2 sequence (whole entry)

[20] = tested on: HEL 92.1.7; experiment: cells; format: functional, cell-based; conditions: Homo sapiens, HEL 92.1.7, 72 h
Description: Antiproliferative activity against human HEL 92.1.7 cells after 72 hrs by MTT assay

[21] = tested on: MCF7; experiment: Antiproliferative activity against human MCF7 cells after 72 hrs by MTT assay; format: functional, cell-based; conditions: MCF7, 72 h

inhibition [1]: Active | IC50 [2]: 0.774 µM | inhibition [6]: Active | inhibition [8]: Active | Ratio IC50 [9]: > 7000 | IC50 [10]: 0.0009 µM | IC50 [11]: 1.97 µM | IC50 [12]: 3.84 µM | inhibition [16]: Active | IC50 [18]: 1.54 µM | IC50 [19]: 0.0001 µM | IC50 [20]: 2.53 µM | IC50 [21]: 1.09 µM
Structure (SMILES): CC(=O)Nc1ccc(-c2ccnc(Nc3ccc(NC(=O)CCCCCCC(=O)NO)cc3)n2)cc1
CC50 at 72 h [3]: 19.5 µM | IC50 [4]: 1.16 µM | selectivity ratio [5]: 3.95 | CC50 at 72 h [7]: 12.5 µM | IC50 [13]: 3.17 µM | selectivity ratio [14]: 6.16 | selectivity ratio [15]: 16.8 | selectivity ratio [17]: 10.8
